Experimental findings from article PMC11219833, “Design and radiosynthesis of class-IIa HDAC inhibitor with high molar activity via repositioning the ^18F-radiolabel” (Scientific Reports, 2024) are described below.

In assay [1] the test system is endogenous class-IIa HDACs in HT-29 cells. The experiment in a line: Whole-cell assay of endogenous class-IIa HDAC inhibition in HT-29 cells (Boc-Lys-TFA substrate). It is filed as cell-based. Particulars: Homo sapiens, class-IIa selective substrate Boc-Lys-TFA, ± SEM. An excerpt:
(§1) The next step was to determine the specificity, selectivity and potency of NT376 to class-IIa HDACs against endogenous class-IIa HDACs in HT-29 cells using the class-distinguishing substrates similar to our previous work[23].
(§2) We utilized the well-established fluorogenic assay to screen NT376 against recombinant human HDAC isoforms and against endogenous HDACs in HT-29 cells. The class IIa HDAC fluorogenic assay functions in a two-step process: first, the class IIa HDAC removes the trifluoroacetate (TFA) from TFA-lysine substrate to generate free lysine which is recognized by trypsin and releases a fluorescent fluorophore (intact substrate is not recognized by trypsin) that can be detected using microplate reader. The IC50 was determined using nonlinear fit curves (GraphPad Prism) (% HDAC activity inhibition vs. compound concentration). […]
(§3) The cell-based HDAC inhibitor assays were performed in HT-29 cells (ATCC). […] The cells were then washed with HDAC Assay Buffer (RPMI 1640 media without phenol red, Gibco, containing 0.1% FBS), re-collected by centrifugation, resuspended in HDAC Assay Buffer, and counted. […] Fluorescent counts were read with a microplate reader at an excitation wavelength of 360 nm and emitted light was detected at 460 nm.

The subject of assay [2] is endogenous class-I/IIb HDACs in HT-29 cells. Kind of assay: Whole-cell assay of endogenous class-I/IIb HDAC inhibition in HT-29 cells (Boc-Lys-Ac substrate). The note with it: Homo sapiens, class-I/IIb selective substrate Boc-Lys-Ac. The assay is classed as cell-based.
Text: as §1, §2, §3

For assay [3], the target named is T1, recombinant human HDAC11 (Homo sapiens, UniProt Q96DB2).
T1 construct: purchased BPS Bioscience, Inc
T1 sequence (Q96DB2 1-347): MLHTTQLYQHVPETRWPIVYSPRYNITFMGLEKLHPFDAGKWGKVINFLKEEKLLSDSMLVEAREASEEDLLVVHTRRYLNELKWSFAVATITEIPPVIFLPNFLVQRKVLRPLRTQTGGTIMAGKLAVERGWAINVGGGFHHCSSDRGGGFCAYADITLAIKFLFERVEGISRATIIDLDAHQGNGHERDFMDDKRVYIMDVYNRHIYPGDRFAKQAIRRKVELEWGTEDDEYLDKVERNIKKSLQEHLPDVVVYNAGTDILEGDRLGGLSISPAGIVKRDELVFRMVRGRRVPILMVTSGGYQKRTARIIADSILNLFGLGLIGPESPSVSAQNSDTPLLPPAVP
Kind of assay: HDAC isoform inhibition fluorogenic assay (BPS Bioscience kit). The note with it: class-IV. The assay is classed as biochemical. The source says: (§4) We utilized the well-established fluorogenic assay to screen NT376 against recombinant human HDAC isoforms and against endogenous HDACs in HT-29 cells. The class IIa HDAC fluorogenic assay functions in a two-step process: first, the class IIa HDAC removes the trifluoroacetate (TFA) from TFA-lysine substrate to generate free lysine which is recognized by trypsin and releases a fluorescent fluorophore (intact substrate is not recognized by trypsin) that can be detected using microplate reader. The IC50 was determined using nonlinear fit curves (GraphPad Prism) (% HDAC activity inhibition vs. compound concentration). The IC50 measurements were performed in triplicates and experiments were repeated twice with known HDAC inhibitors NT160 and SAHA used as positive and […] controls respectively.
(§5) Preparation of NT376: A 1.0 mM stock solution of NT376 was prepared in 100% DMSO. 11-dilutions of NT376 were then prepared in HDAC assay buffer with the DMSO adjusted to 2.5% final concentration in the assay medium.
(§6) NT376 was screened against recombinant human HDACs isoforms using the commercially available HDACs enzyme assay kits (BPS Bioscience, Inc.). The experiments were performed according to the manufacturer protocol.

Assay [4] addresses T2, recombinant human HDAC1 (Homo sapiens, UniProt Q13547).
T2 construct: purchased BPS Bioscience, Inc
Described as above. It is filed as biochemical. Particulars: class-I.
Text: as §4, §5, §6

The target in assay [5] is T3, recombinant human HDAC5 (Homo sapiens, UniProt Q9UQL6).
T3 construct: purchased BPS Bioscience, Inc
Described as above. It is filed as biochemical.
Text: as §4, §5, §6

For assay [6], the target named is T4, recombinant human HDAC4 (Homo sapiens, UniProt P56524).
T4 construct: purchased BPS Bioscience, Inc
The description is as above. The assay is classed as biochemical.
Text: as §4, §5, §6

The target of assay [7] is T5, recombinant human HDAC6 (Homo sapiens, UniProt Q9UBN7).
T5 construct: purchased BPS Bioscience, Inc
T5 sequence (Q9UBN7 1-1215): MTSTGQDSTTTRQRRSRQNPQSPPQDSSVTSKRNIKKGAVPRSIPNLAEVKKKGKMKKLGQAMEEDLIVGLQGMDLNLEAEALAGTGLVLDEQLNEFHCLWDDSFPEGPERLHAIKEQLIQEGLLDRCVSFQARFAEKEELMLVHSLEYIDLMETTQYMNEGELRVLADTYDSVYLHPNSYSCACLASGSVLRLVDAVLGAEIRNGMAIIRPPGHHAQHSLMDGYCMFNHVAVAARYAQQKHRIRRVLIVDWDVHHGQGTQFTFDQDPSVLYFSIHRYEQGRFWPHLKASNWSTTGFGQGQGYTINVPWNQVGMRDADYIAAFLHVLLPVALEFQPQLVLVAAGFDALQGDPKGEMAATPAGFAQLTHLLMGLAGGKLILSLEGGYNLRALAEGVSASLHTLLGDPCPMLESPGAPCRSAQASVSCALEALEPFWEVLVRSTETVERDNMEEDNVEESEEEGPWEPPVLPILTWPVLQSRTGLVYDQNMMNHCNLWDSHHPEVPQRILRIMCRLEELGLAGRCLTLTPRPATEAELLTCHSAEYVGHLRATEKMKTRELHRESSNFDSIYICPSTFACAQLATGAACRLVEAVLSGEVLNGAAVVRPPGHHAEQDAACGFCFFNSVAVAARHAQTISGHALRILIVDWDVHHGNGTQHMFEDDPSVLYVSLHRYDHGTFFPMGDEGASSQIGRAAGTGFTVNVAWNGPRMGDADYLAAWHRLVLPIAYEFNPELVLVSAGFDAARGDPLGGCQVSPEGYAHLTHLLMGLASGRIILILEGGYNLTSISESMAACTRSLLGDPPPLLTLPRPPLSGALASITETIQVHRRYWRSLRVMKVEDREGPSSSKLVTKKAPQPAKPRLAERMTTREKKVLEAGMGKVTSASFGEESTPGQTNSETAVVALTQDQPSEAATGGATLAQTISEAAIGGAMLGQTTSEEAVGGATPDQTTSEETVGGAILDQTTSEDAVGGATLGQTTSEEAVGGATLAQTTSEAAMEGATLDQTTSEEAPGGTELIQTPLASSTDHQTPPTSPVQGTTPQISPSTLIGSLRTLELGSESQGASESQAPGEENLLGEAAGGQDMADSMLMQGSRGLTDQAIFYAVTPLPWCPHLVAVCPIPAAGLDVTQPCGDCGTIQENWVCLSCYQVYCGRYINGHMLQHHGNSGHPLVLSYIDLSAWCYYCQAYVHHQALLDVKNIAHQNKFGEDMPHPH
The assay is described as above. The assay is classed as biochemical. Particulars: class-IIb.
Text: as §4, §5, §6

Structures are written as SMILES. A value given as a limit tells only on which side of the number the result lay.

T3 sequence (Q9UQL6 whole entry): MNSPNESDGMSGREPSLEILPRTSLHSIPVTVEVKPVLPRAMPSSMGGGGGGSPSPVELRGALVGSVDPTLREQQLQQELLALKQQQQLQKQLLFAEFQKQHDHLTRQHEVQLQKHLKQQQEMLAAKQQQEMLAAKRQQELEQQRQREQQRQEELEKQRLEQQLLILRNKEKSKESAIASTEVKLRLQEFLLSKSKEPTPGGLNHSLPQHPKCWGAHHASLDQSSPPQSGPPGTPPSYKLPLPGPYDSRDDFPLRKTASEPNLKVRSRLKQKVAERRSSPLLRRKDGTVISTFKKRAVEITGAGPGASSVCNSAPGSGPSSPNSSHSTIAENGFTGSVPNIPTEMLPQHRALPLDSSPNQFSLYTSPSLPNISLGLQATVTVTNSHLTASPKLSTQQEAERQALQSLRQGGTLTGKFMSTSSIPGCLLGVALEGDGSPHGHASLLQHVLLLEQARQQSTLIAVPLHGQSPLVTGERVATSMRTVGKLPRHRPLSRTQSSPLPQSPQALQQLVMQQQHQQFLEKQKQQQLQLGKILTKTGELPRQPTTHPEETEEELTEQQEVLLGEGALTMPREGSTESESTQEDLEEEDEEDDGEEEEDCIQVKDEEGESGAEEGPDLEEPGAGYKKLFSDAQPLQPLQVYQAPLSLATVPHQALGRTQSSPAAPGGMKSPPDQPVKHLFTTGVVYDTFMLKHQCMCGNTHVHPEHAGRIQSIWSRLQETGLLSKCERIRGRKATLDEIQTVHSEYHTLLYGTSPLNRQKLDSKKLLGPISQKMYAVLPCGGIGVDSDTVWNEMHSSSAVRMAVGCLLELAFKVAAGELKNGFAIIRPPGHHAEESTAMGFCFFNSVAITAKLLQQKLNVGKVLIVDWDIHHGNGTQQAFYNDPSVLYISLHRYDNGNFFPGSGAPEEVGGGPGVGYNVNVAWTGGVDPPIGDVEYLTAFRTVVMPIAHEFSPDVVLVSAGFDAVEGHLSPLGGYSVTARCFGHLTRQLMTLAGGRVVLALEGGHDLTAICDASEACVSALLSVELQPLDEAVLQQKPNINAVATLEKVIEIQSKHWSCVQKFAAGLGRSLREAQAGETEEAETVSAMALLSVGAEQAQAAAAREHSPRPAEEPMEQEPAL
T4 sequence (P56524 whole entry): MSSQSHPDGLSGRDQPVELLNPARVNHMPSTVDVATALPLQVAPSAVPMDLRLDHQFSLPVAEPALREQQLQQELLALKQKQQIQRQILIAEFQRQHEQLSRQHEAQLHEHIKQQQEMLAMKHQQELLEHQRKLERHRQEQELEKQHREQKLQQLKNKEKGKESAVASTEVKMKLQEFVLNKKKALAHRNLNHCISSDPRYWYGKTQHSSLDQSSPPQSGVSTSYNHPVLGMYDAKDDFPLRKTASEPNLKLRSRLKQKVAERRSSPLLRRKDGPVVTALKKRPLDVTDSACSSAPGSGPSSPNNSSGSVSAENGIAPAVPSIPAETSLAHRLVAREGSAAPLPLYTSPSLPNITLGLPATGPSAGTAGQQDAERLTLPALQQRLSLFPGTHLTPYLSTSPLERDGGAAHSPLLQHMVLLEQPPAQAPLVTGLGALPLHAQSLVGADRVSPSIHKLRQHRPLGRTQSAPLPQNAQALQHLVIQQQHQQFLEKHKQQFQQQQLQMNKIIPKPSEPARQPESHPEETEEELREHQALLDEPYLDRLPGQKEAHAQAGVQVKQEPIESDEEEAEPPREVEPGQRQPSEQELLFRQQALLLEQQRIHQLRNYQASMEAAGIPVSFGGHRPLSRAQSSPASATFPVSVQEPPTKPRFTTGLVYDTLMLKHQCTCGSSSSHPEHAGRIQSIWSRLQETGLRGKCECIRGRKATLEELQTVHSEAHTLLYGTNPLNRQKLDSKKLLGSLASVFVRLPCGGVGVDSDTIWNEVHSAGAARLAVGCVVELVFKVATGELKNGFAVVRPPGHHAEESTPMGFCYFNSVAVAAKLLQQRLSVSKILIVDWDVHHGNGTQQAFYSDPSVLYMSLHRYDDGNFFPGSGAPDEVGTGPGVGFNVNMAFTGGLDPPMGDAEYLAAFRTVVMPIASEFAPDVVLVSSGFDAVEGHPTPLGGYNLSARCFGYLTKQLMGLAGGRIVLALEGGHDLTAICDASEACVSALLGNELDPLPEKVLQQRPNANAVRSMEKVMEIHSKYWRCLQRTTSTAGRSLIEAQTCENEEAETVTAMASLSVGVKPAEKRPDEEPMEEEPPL
T2 sequence (Q13547 whole entry): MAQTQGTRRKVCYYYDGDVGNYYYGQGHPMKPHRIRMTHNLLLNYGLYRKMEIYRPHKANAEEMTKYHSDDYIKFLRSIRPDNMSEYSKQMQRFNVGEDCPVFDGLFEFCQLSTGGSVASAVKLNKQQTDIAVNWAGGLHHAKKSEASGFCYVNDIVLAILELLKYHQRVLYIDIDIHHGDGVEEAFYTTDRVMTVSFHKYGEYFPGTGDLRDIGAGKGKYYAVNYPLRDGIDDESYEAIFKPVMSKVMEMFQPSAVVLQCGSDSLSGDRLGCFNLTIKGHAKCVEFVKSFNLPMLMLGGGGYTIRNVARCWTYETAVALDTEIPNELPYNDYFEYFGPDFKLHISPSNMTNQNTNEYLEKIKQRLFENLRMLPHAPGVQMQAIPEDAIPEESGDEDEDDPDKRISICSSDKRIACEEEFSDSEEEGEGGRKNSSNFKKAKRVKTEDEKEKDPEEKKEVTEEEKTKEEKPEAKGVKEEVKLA

Regarding `C[C@H](CN(C)Cc1ccccc1)NC(=O)c1ccc(-c2noc(C(F)(F)F)n2)cc1F` [NT376, (R)-N-(1-(benzyl(methyl)amino)propan-2-yl)-2-fluoro-4-(5-(trifluoromethyl)-1,2,4-oxadiazol-3-yl)benzamide], the IC50 (usually the concentration needed to halve the response being measured) in assay [1] is 32 ± 7.6 nM; in assay [2], > 4000 nM; in assay [3], 4850 nM; in assay [4], 1480 nM; in assay [5], 2.85 nM; in assay [6] it was 1.26 nM. Further, the IC50 in assay [7] stood at 5030 nM.
